Assay results taken from article PMC9862023, “Isosarcophytoxide Derivatives with a 2,5-Dihydrofuran Moiety from the Soft Coral Sarcophyton cinereum” (Molecules, 2023).

What was measured:
[1] = system: human small cell lung cancer (H1688) cells; assay: Cytotoxicity MTT assay, H1688 cell line; type: cell-based; conditions: 37 °C, 24 h, read-out: cytotoxicity toward H1688 cell line, IC50
Description: The cytotoxicities of compounds were analyzed by using the human small cell lung cancer H1688 cell line and the 3-(4,5-dimethylthiazol-2-yl)-2,5-diphenyl tetrazolium bromide (MTT, Sigma-Aldrich, St. Louis, MO, USA) assay at 37 °C for 24 h.

[2] = Cell viability of dendritic cells (CCK-8); type: cell-based, murine; conditions: mouse, dendritic cells (DCs), CCK-8, 37 °C, read-out: cytotoxicity against DCs, IC50
Description: The DCs (1 × 10^6) were treated with tested compounds (100 μg/mL) and cultured at 37 °C for 24 h. Cytotoxicity was examined using a Cell Counting Kit-8 (CCK-8; Dojindo Molecular Technologies, Inc., Kumamoto, Japan) according to the manufacturer’s protocol. The absorbance was recorded on a microplate reader (Tecan Group Ltd., Männedorf, Switzerland) at a wavelength of 450 nm.

[3] = system: TNF-α expression in LPS-stimulated murine dendritic cells (DCs); assay: TNF-α expression by LPS-induced DCs (ELISA); type: cell-based; conditions: Mus musculus, Dendritic cell, 100 ng/mL LPS, 24 h, read-out: inhibition of TNF-α expression in LPS-stimulated DCs, IC50
Description: The TNF-α expressions of LPS-induced DCs were measured by enzyme-link immunosorbent assay (ELISA), in the same way as the previously reported method. The DCs were treated with 100 ng/mL lipopolysaccharide (LPS) and the isolated compounds for 24 h. The optical density of the production of TNF-α was measured at 450 nm by the ELISA reader.

SMILES | IC50 [1] [µM] | IC50 at 24 h [2] [µM] | IC50 [3] [µM]
COC1OC2C=C(C)CCC=C(C)CCC3OC3(C)CCC2=C1C (stereo not drawn) [compound 3, 16β-Methoxyisosarcophytoxide] | 27.5 ± 6.4 | – | –
O=c1c(O)c(-c2ccc(O)c(O)c2)oc2cc(O)cc(O)c12 [Quercetin] | – | 78.8 ± 7.3 | 23.1 ± 5.2
COC1OC2C=C(C)CCC=C(C)CCC3OC3(C)CCC2=C1C (stereo not drawn) [compound 4, 16α-Methoxyisosarcophytoxide] | 85.8 | – | –
C=C[C@@](C)(Cl)[C@@H](Cl)/C=C/C(=C/Cl)C(Cl)Cl (relative stereo) [(3R*,4S*,5E,7Z)-7-dichlorothyl-3,4,8-trichloro-3-methylocta-1,5,7-triene] | 4.2 ± 2.1 | – | –
